Results reported in patent publication US9744186B2 (priority 2012, dated 2017).
Where two headings read alike, the source gives them in different places.

Key:
[1] = TC50 MTS assay: RPK9 cells (deficient in deoxycytidine kinase); assay type: cell-based; details: human, 48 h drug treatment, dCK-deficient cells
Method: (§1) Plating Cells: The Huh7, HEPG2, HEK293, MCF-7, PK9, RPK9, or BxPC3 cells were passaged when they were about 70% confluent. The cells were counted using a hemocytometer, and then diluted cells to 0.5×10^5 cells per mL in DMEM+10% FBS. 100 µL of the cells (5,000 cells) were plated per well in a clear 96-well plate. The cells were allowed to attach for 24 hours at 37° C.
(§2) Treating the cells: Pre-warm the DMEM media without phenol red+2% FBS media to 37° C. […] This will bring the final DMSO concentration to 0.5%. Use these 0.5 mM dilutions to further serially the drugs in DMEM without phenol red+2% FBS+0.5% DMSO. This will keep the concentration of DMSO in each condition identical. Remove the 96-well plate from the 37° C. incubator. Replace the media on the plate with the dilutions of the drugs. Stagger these treatments by 1 h and write the treatment time on each set of plates. Return to 37° C. for 48 h or 96 h as indicated.
(§3) MTS Assay: The reagents from CellTiter 96 kit (Promega Corporation, Madison, Wis.) were thawed at room temperature in the dark for 1 h. The 96-well plate was removed from the 37° C. incubator at 48 h after drug treatment. […] The absorbance of each well at 490 nm and 650 nm was determined using the Flexstation 3 microplate reader in endpoint mode every hour for 3 h. The solutions in the wells were mixed prior to each reading. […]

HCV luciferase replicon [2] = experiment: HCV luciferase replicon inhibition in the presence of carboxylesterase inhibitors (benzil or BNPP); assay type: cell-based; details: Hepatitis C virus, 48 h
Method: The cells were counted using a hemocytometer, and then diluted to 1×10^5 cells/mL in DMEM with 10% FBS and […] G415. 100 μL of the cells (10,000 cells) were plated per well in a white-walled 96-well plate according to the template on the following page.
Treating the cells: Media (DMEM with 2% FBS) was pre-warmed to 37° C. Stock solutions (100 mM) of Benzil and BNPP were diluted in DMEM with 2% FBS to 100 μM. […] The cells were returned to 37° C. for 1 h. […] The 1.0 mM dilution of GCB or GTB in DMEM+2% FBS+100 μM Benzil or BNPP was serially diluted in DMEM with 2% FBS, 0.5% DMSO, 100 μM benzil or BNPP. At the end of the 1 h incubation, the 96-well plate with cells plated as above was removed from the 37° C. incubator, and 50 μL media diluted test drug and 100 μM of benzil or BNPP was added to each well. The plates were gently rocked to mix the media. Also included were conditions with inhibitors alone (DMEM+2% FBS+0.5% DMSO+100 μM benzil or BNPP) and media alone (DMEM+2% FBS+0.5% DMSO) in triplicate. The plates were returned to 37° C. for 48 h.

[3] = TC50 MTS assay: PK9 cells; assay type: cell-based; details: human, 48 h drug treatment
Method: as §1, §2, §3

[4] = TC50 MTS assay with human cancer cell lines: HEPG2; assay type: cell-based; details: HEPG2 cells, 96 h drug treatment
Method: as §1, §2
(§4) MTS Assay: The reagents from CellTiter 96 kit (Promega Corporation, Madison, Wis.) were thawed at room temperature in the dark for 1 h. The 96-well plate was removed from the 37° C. incubator at 48 h after drug treatment. 20 μL of the combined MTS/PMS reagent to each well of the plate, mixed, and the plate returned to 37° C. The absorbance of each well at 490 nm and 650 nm was determined using the Flexstation 3 microplate reader in endpoint mode every hour for 3 h. The solutions in the wells were mixed prior to each reading. Fit Data to the Emax model: y=(Emax*x)/(TC50+x), where Emax is the maximum inhibition and TC50 is the inhibitory dose 50%. Alternatively, fit the data to the Emax sigmoidal model: y=(Emax*x^slope)/(TC50^slope+x^slope), where slope is the Hill Slope.
Each TC50 was the average value of three measurements as described herein. […] The RPK9 cells are deficient in deoxycytidine kinase (“dCK”) activity, an enzyme required for the initial phosphorylation of dFdC to dFdCMP (see FIG. 2).

HCV luciferase replicon [5] = experiment: Reversal of anti-HCV activity by exogenous nucleosides; assay type: cell-based, hepatitis C virus (HCV); details: drug 1000, 100 or 25 nM; 50 μM cytidine or 2′-deoxycitidine; 48 h
Method: After 48 hours, the cells were lysed, and the total luciferase activity was determined. […] Where indicated, either 50 μM cytidine (C) or 50 μM 2′-deoxycitidine (dC) was also included.
The cells were plated, incubated with drug, and luciferase activity assayed essentially as described herein above. The incubation with drug was for 48 h.

in vitro = experiment: in vitro
Method: (§5) Plating Cells: The Huh7 cell line was passaged when it was at about 70% confluency. The cells were counted using a hemocytometer, followed by dilution of the cells to 0.5×10^5 cells per mL in DMEM+10% FBS. The cells were plated at 100 μL (5,000 cells) per well in a clear 96-well plate. The cells were allowed to attach for 24 hours at 37° C.
(§6) Treating the cells: The media (DMEM media without phenol red+2% FBS media) was pre-warmed to 37° C. […] This provided a final DMSO concentration of 0.5%. The 100 mM stock of 3,5-dichlorobenzoic acid was diluted in DMEM without phenol red+2% FBS to a concentration of 0.5 mM. The working 0.5 mM diluted test drugs were serially diluted in DMEM without phenol red+2% FBS+0.5% DMSO in order to maintain a constant concentration of DMSO in each condition. The 96-well plate was removed from the 37° C. incubator, and the media on the plate was replaced with media containing diluted test drug.
as §4, with “The data were fit” for “Fit Data”, “Alternatively,” for “Alternatively, fit”, “data can be fit” for “data”

Huh7 cells = experiment: in vitro; details: control Huh7 cells; 48 h drug exposure; MTS
Method: as §5, §6
as §4, with “The data were fit” for “Fit Data”, “Alternatively,” for “Alternatively, fit”, “data can be fit” for “data”

Row | SMILES | CC50 at 48 h [1] [µM] | IC50 (HCV luciferase replicon [2]; 100 μM BNPP, read-out: IC50 (nM) +BNPP) [nM] | IC50 (HCV luciferase replicon [2]; 100 μM benzil, read-out: IC50 (nM) +Benzil) [nM] | IC50 (HCV luciferase replicon [2]; no carboxylesterase inhibitor, read-out: IC50 (nM) −Benzil −BNPP) [nM] | CC50 at 48 h [3] [µM] | CC50 at 96 h [4] [nM] | reversal of the inhibition of the HCV luciferase replicon by deoxycytidine and cytidine (HCV luciferase replicon [5]) | CC50 at 48 h (in vitro) [nM] | TC50 (Huh7 cells) [nM]
1 | COc1cc(C(=O)Nc2ccn([C@@H]3O[C@H](CO)[C@@H](O)C3(F)F)c(=O)n2)cc(OC)c1OC [GTB, N^4-(3,4,5-Trimethoxybenzoyl)gemcitabine] | > 500 | 81 | 125 | 49 | 1.69 ± 0.1 | 1670 ± 420 | reversal | 495000 ± 97000 | 
2 | O=C(Nc1ccn([C@@H]2O[C@H](CO)[C@@H](O)C2(F)F)c(=O)n1)c1cc(Cl)cc(Cl)c1 [GCB, N^4-(3,5-Dichlorobenzoyl)gemcitabine] |  |  |  |  |  | 633 ± 207 | reversal | 110000 ± 36000 | > 100000
